Among the test systems are ACHN; HCC 2998; HL-60; HOP-62; KM12; MDA-MB-231; MOLT-4; Malme-3M; NCI-H23; OVCAR-5; OVCAR-8; RPMI-8226; SF-268; SK-MEL-2; SK-MEL-5; SN12C; SNB-75; SR; UACC-62; UACC-257.
Assay in all cases: NCI tumour cell line growth inhibition, 48 h

This is an account of results in ChEMBL document CHEMBL1201862, “PubChem BioAssay data set” (2004).

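Growth conditions: 96-well plates. Treatment: test compound, 48 hours, 5 concentrations. Analysis: linear interpolation between bracketing concentrations; unreached endpoints set to highest concentration. Abbreviation: GI50, concentration required for 50% inhibition of growth.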 The source made the active and inactive calls. Cut-off read from the data, not from the text of the source: active = GI50 up to about 1.1 µM and inactive = higher.

Turning to `COc1cc(C2C3=C(COC3=O)Oc3cc4c(cc32)OCO4)ccc1O` (stereo not given), the GI50 in the assay with ACHN was 0.653 µM (active); in the assay on HCC 2998, 0.893 µM (active); in the assay on HL-60 it was 0.182 µM (active); in the assay on HOP-62 it was 0.394 µM (active); in the assay on KM12, 0.262 µM (active); in the assay with MDA-MB-231, 0.818 µM (active). In addition, the GI50 was 0.543 µM (active) in the assay on MOLT-4; 0.174 µM (active) in the assay on Malme-3M; 0.65 µM (active) in the assay on NCI-H23; 3.78 µM (inactive) in the assay on OVCAR-5; 0.69 µM (active) with OVCAR-8; 0.372 µM (active) in the assay with RPMI-8226. Further, the GI50 in the assay on SF-268 is 2.07 µM (inactive); in the assay with SK-MEL-2, 0.543 µM (active); in the assay with SK-MEL-5 it was 0.0728 µM (active); in the assay with SN12C, 2.69 µM (inactive); with SNB-75, 0.225 µM (active); in the assay on SR, 0.252 µM (active). For the same molecule, the GI50 with UACC-62 is 0.356 µM (active).

With `Cc1nc(C(N)=S)sc1C(=O)C/C(=N/N)C(=O)Nc1cccc(Cl)c1C`, the GI50 with ACHN, in the assay on HCC 2998, in the assay on HL-60, in the assay with HOP-62, in the assay on KM12 and in the assay on MDA-MB-231 was > 100 µM (inactive) in each case. Further, the GI50 in the assay with MOLT-4, with Malme-3M, in the assay on NCI-H23, in the assay on OVCAR-5, in the assay with OVCAR-8 and in the assay with RPMI-8226 was > 100 µM (inactive) each time. The GI50 with SF-268, with SK-MEL-2, in the assay on SK-MEL-5, in the assay on SN12C, in the assay with SNB-75 and in the assay with SR was > 100 µM (inactive) in each case. Also, the GI50 with UACC-257 and with UACC-62 was > 100 µM (inactive) each time.

On to `N/C(=N\Nc1cccc(Cl)c1)c1cccnc1`, for which the GI50 in the assay with ACHN is 18.9 µM (inactive); with HCC 2998, 36 µM (inactive); in the assay on HL-60 it was 4.28 µM (inactive); with HOP-62, > 100 µM (inactive); with KM12, 30 µM (inactive); in the assay with MDA-MB-231, 81.1 µM (inactive). In addition, the GI50 was 28.3 µM (inactive) in the assay on MOLT-4; 97.9 µM (inactive) in the assay with Malme-3M; 43.5 µM (inactive) with NCI-H23; 41.3 µM (inactive) in the assay with OVCAR-5; > 78.3 µM (inactive) in the assay with OVCAR-8; 14.7 µM (inactive) in the assay on RPMI-8226. Besides, the GI50 in the assay on SF-268 is 65.3 µM (inactive); with SK-MEL-2 it was 36.9 µM (inactive); in the assay on SK-MEL-5, 32.9 µM (inactive); with SN12C it was 60 µM (inactive); with SNB-75 it was 29.7 µM (inactive); with SR it was 26 µM (inactive). The results for the GI50 with UACC-257 and with UACC-62 were 32.3 µM (inactive) and 22.8 µM (inactive), respectively.

In the case of `Cc1c(C)c2c(c(N)c1C#N)C(=O)N(NC(=S)Nc1ccccc1)C2=O`, the GI50 in the assay with ACHN was 50 µM (inactive); with HCC 2998, > 100 µM (inactive); in the assay on HL-60, 86.9 µM (inactive); in the assay on KM12, 91.4 µM (inactive); in the assay on MDA-MB-231, > 100 µM (inactive); in the assay with MOLT-4, 20.3 µM (inactive). Moreover, the GI50 was 72.9 µM (inactive) in the assay with Malme-3M; > 100 µM (inactive) with NCI-H23; > 100 µM (inactive) in the assay on OVCAR-5; 45 µM (inactive) with OVCAR-8; 43.3 µM (inactive) in the assay with RPMI-8226; 31.4 µM (inactive) in the assay on SF-268. In addition, the GI50 is > 100 µM (inactive) in the assay with SK-MEL-2; 90.4 µM (inactive) in the assay on SK-MEL-5; 69.7 µM (inactive) in the assay on SN12C; 39 µM (inactive) with SNB-75; 22.4 µM (inactive) with SR; > 100 µM (inactive) with UACC-257. For the same molecule, the GI50 with UACC-62 is > 100 µM (inactive).

With `Fc1ccc(Nc2nc(Cl)c3nc[nH]c3n2)cc1Cl`, the GI50 is 34.9 µM (inactive) in the assay with ACHN; 32.9 µM (inactive) with HCC 2998; > 100 µM (inactive) in the assay with HL-60; 61.8 µM (inactive) in the assay with HOP-62; > 100 µM (inactive) in the assay with KM12; > 100 µM (inactive) with MDA-MB-231. Further, the GI50 was > 100 µM (inactive) with MOLT-4; > 100 µM (inactive) in the assay on Malme-3M; 79.6 µM (inactive) in the assay on NCI-H23; > 100 µM (inactive) in the assay with OVCAR-5; 24.9 µM (inactive) in the assay on OVCAR-8; > 100 µM (inactive) with RPMI-8226. Also, the GI50 was 35.6 µM (inactive) with SF-268; > 100 µM (inactive) with SK-MEL-2; > 100 µM (inactive) in the assay on SK-MEL-5; > 100 µM (inactive) with SN12C; 41.4 µM (inactive) in the assay with SNB-75; 86.1 µM (inactive) with SR. The GI50 in the assay on UACC-257 and in the assay on UACC-62 was > 100 µM (inactive) throughout.

As to `CC(=O)N1C(CCc2ccccc2)CC(C)(C=O)C1Cc1ccc(O[Si](C(C)C)(C(C)C)C(C)C)cc1` (stereo not given), the GI50 in the assay with ACHN was 6.89 µM (inactive); in the assay with HCC 2998 it was 1.31 µM (inactive); with HL-60, 1.76 µM (inactive); with HOP-62, 8.11 µM (inactive); with KM12 it was 3.02 µM (inactive); in the assay on MDA-MB-231 it was 4.79 µM (inactive). In addition, the GI50 in the assay on MOLT-4 was 1.06 µM (active); with Malme-3M it was 14.2 µM (inactive); in the assay on NCI-H23 it was 5.53 µM (inactive); with OVCAR-5, 14.7 µM (inactive); with OVCAR-8, 4.39 µM (inactive); in the assay on RPMI-8226, 2.07 µM (inactive). The GI50 in the assay with SF-268 is 4.19 µM (inactive); in the assay on SK-MEL-2, 3.48 µM (inactive); in the assay on SK-MEL-5 it was 3.4 µM (inactive); with SN12C it was 3.29 µM (inactive); in the assay on SNB-75 it was 3.92 µM (inactive); with SR, 2.09 µM (inactive). Besides, the GI50 in the assay on UACC-257 was 5.11 µM (inactive); in the assay on UACC-62, 4.68 µM (inactive).

Take `Cc1ccc(/N=N/c2ccc(O)c(CN(C)C)c2)cc1C`: the GI50 was 17.6 µM (inactive) in the assay with ACHN; 16.4 µM (inactive) in the assay with HCC 2998; 10.1 µM (inactive) in the assay with HL-60; 15.5 µM (inactive) with HOP-62; 16.9 µM (inactive) with KM12; 16.3 µM (inactive) in the assay on MDA-MB-231. For the same molecule, the GI50 with MOLT-4 was 16.6 µM (inactive); in the assay on Malme-3M, 19.1 µM (inactive); in the assay with NCI-H23, 70.3 µM (inactive); with OVCAR-5, 31.8 µM (inactive); in the assay with OVCAR-8 it was 37.2 µM (inactive); with RPMI-8226, 26.5 µM (inactive). Further, the GI50 in the assay with SF-268 is 27.9 µM (inactive); with SK-MEL-2 it was 16.2 µM (inactive); in the assay with SK-MEL-5, 15.1 µM (inactive); with SN12C, > 100 µM (inactive); in the assay with SNB-75 it was 21.9 µM (inactive); with SR, 27.2 µM (inactive). In addition, the GI50 is 23.1 µM (inactive) in the assay on UACC-257 and 17.1 µM (inactive) in the assay with UACC-62.

With `O=C(N/N=C\c1ccc([N+](=O)[O-])s1)c1ccncc1`, the GI50 is 18.3 µM (inactive) with ACHN; 5.71 µM (inactive) in the assay on HCC 2998; 2.38 µM (inactive) in the assay on HL-60; 14.4 µM (inactive) in the assay with HOP-62; 10 µM (inactive) with KM12; 18.8 µM (inactive) with MDA-MB-231. For the same molecule, the GI50 was 19.9 µM (inactive) in the assay with MOLT-4; 8.18 µM (inactive) in the assay on Malme-3M; 16.2 µM (inactive) in the assay with NCI-H23; 29.9 µM (inactive) in the assay on OVCAR-5; 14.7 µM (inactive) in the assay on OVCAR-8; 5.62 µM (inactive) in the assay on RPMI-8226. Also, the GI50 in the assay with SF-268 was 13.6 µM (inactive); in the assay with SK-MEL-2, 18.2 µM (inactive); in the assay with SK-MEL-5, 3.25 µM (inactive); in the assay with SN12C, 8.65 µM (inactive); in the assay with SNB-75 it was 19.4 µM (inactive); in the assay with SR, 5.65 µM (inactive). The values for the GI50 in the assay on UACC-257 and in the assay with UACC-62 were 14.6 µM (inactive) and 10.7 µM (inactive), respectively.

Regarding `COC(=O)C(=O)C(C(=O)C(=O)Nc1ccc(C)c(C)c1)c1nc2ccc([N+](=O)[O-])cc2nc1O` (stereo not given), the GI50 in the assay on ACHN, in the assay with HCC 2998, with HL-60, with HOP-62, with KM12 and in the assay with MDA-MB-231 was > 100 µM (inactive) in each case. Also, the GI50 in the assay on MOLT-4, with Malme-3M, in the assay with NCI-H23, with OVCAR-5, in the assay with OVCAR-8 and in the assay on RPMI-8226 was > 100 µM (inactive) throughout. Also, the GI50 with SF-268, with SK-MEL-2, with SK-MEL-5, with SN12C, with SNB-75 and with SR was > 100 µM (inactive) each time. Also, the GI50 in the assay on UACC-257 and with UACC-62 was > 100 µM (inactive) in each case.

Turning to `CC[C@H](CO)Nc1nc(NCc2ccccc2)c2ncn(C(C)C)c2n1` [SELICICLIB], the GI50 in the assay on ACHN was 12.8 µM (inactive); with HCC 2998, 32.2 µM (inactive); in the assay with HL-60, 21.7 µM (inactive); in the assay on HOP-62 it was 24.6 µM (inactive); in the assay on KM12 it was 5.26 µM (inactive); with MDA-MB-231 it was 39.7 µM (inactive). In addition, the GI50 was 25.1 µM (inactive) in the assay on MOLT-4; 19.3 µM (inactive) in the assay on Malme-3M; 13.2 µM (inactive) in the assay on NCI-H23; 42.8 µM (inactive) in the assay with OVCAR-5; 24.2 µM (inactive) in the assay with RPMI-8226; 19.8 µM (inactive) in the assay on SF-268. Moreover, the GI50 was 17.5 µM (inactive) in the assay on SK-MEL-2; 10.7 µM (inactive) with SK-MEL-5; 11.3 µM (inactive) in the assay with SNB-75; 5.4 µM (inactive) in the assay on SR; 8.07 µM (inactive) in the assay on UACC-62.
